These results are taken from US9656995B2, “Triazine derivative” (Carna Biosciences, Inc., priority 2013, dated 2017).

Structures are written as SMILES. Entries after “also recorded” stand apart in the source; their conditions may differ.

One data set addresses T1, BTK (Homo sapiens, UniProt Q06187).
T1 construct: endogenous in cells; host or cells: Ramos cells (2G6.4C10, ATCC No. CRL-1923)
Briefly: Intracellular BTK auto-phosphorylation activity inhibition test in Ramos cells. The format is cell-based. The following applies: test compound 0.3 μM, anti-IgM stimulation, pY223, read-out: BTK Phosphorylation inhibiting activity. The method, then:
Intracellular BTK Auto-Phosphorylation Activity Inhibition Test
(Culture of Cells to be Used)
Ramos cells (2G6.4C10, ATCC No. CRL-1923) were cultured in a T75 flask containing RPMI-1640 medium (GIBCO, #A10491-01) supplemented with 10% FBS (AusGene) and 5% penicillin-streptomycin (Nacalai Tesque, Inc.) (hereinafter referred to as growth medium) in a 5% CO2 incubator.
(Addition of the Compound to be Tested)
The cultured Ramos cells were diluted to a cell density of 7.5×10^6 cells/mL with a serum-free RPMI-1640 (hereinafter referred to as medium) and kept at 37° C. for 45 minutes. The cell suspension was dispensed in 1 mL aliquots into 2.0 mL tubes. […]
To the pellets obtained by recovering the cells via centrifugation, 100 μL of a lysis buffer [RIPA Buffer(×1) (Cell Signaling Technology, Inc.) supplemented with 1% Phosphatase inhibitor Cacktail 3 (Sigma Corporation, No. P0044), 1% Phosphatase inhibitor Cacktail (Nacalai Tesque, Inc., No. 07575) and 1 mM phenylmethylsulfonyl fluoride (PMSF)] was added and stirred gently and then allowed to stand for 10 minutes. The supernatant was recovered by centrifugation (15,000 rpm, 15 minutes) and the protein level was quantified. […]

The test system of data set [1] is BCR signal in the Ramos cells. Nature of the data set: Inhibition test on the change of Ramos intracellular calcium ion (anti-IgM BCR stimulation). The class given is cell-based. The note with it: 0.003-1 μM, anti-IgM 2.0 μg/mL (FIG. 1). The method, then:
Inhibition Test on the Change of Ramos Intracellular Calcium Ion
The intracellular BTK inhibition by the compounds of the invention was verified by measuring the effects of the compounds of the invention on “anti-IgM antibody BCR stimulation-induced intracellular calcium influx”.
(Addition of Cell Suspension and Calcium Indicator)
One day before measurement, the Ramos cells were cultured after suspended again at a cell density of 1.0×10^6 cells/mL in a fresh growth medium (growth medium as used in Test Example 2), and the cells were recovered next day by centrifugation and washed with RPMI-1640 medium supplemented with 5% penicillin-streptomycin (Nacalai Tesque, Inc.) (Medium 1). These cells were suspended again at a cell density of 2.0×10^6 cells/mL in RPMI-1640 medium supplemented with 1% Ultra Low IgG FBS (GIBCO, #16250) and 5% penicillin-streptomycin (Nacalai Tesque, Inc.) (Medium 2), and thereafter each 100 μL of the cell suspension was added to each well of a poly lysine-coated microplate (BD BioCoat™, #356692), centrifuged (700 rpm, 3 minutes) and then incubated for 1 hour in a 5% CO2 incubator at 37° C. […]
Concentration of the Ramos intracellular calcium ion was measured as a fluorescent intensity of the calcium indicator Fluo-8NW using a microplate reader (SynergyH1) (Ex/Em=490/525 nm). […]

In data set [2] the test system is passive cutaneous anaphylaxis reaction (PCA reaction). Nature of the data set: Passive cutaneous anaphylaxis reaction in mouse. The class given is in vivo. The note with it: ICR mouse, oral, 3.0 mg/mL at 10 mL/kg, vs solvent group (FIG. 2). The text has this: Test of Passive Cutaneous Anaphylaxis Reaction in Mouse
Since BTK plays an important role in FcεRI signal transmission in a mast cell, it was investigated whether a mast cell-involving immediate allergic reaction, namely, passive cutaneous anaphylaxis reaction (PCA reaction), which is an immediate allergic reaction involving mast cell, was inhibited by the administration of the compound.
(Preparation of Test Compound Solution)
DMSO, polyethylene glycol 400 (PEG#400, Nacalai Tesque, Inc. #28215-95), and 30% (w/v) hydroxypropyl-β-cyclodextrin aqueous solution (HP-β-CD, Sigma Corporation, #332607-500) were successively added to the test compound in this order, and mixed thoroughly to prepare a test compound solution (solvent composition: 5% solution of test compound in DMSO, 30% PEG#400, 65% HP-β-CD [30% (w/v) aqueous solution]). In the solvent control group, a DMSO solution was used instead of the solution of the test compound in DMSO.
An anti DNP-IgE monoclonal antibody (50 μg/mL, Santa Cruz Biotechnology, Inc., #sc-69695) was intradermally administered to both auricles in an ICR mouse under systemic anesthesia (10 μL/site). […] The absorbance of the resultant filtrate at 620 nm was measured, and used as an index of the dye leakage level. […]

Data set [3] concerns collagen-induced arthritis. Nature of the data set: Mouse collagen-induced arthritis model. The format is in vivo. The note with it: DBA/1J mice, 30 and 60 mg/kg orally twice a day. The method, then:
Effect in Mouse Collagen-Induced Arthritis Model
Incomplete Freund's Adjuvant (Chondrex, Inc., #7002) supplemented with M. Tuberculosis H37 Ra, Desiccated (Beckton Dickinson and Company, #231141) at 2.5 mg/mL and Bovine Type II Collagen, 2 mg/mL Solution (Chondrex, Inc., #20022) were mixed in a 1:1 ratio to form an emulsion.
Three groups of DBA/1J mice (10 animals/group) (6-week old, male) received 0.1 mL per animal of the emulsion which was given in small portions on Day 0 and Day 21 by intradermal injection at the base of the tail, thereby accomplishing the immunization. The solvent or the test compound solution was given twice a day orally every day from Day 18 to Day 36 (test compound doses in the respective groups: 0 mg/kg, 30 mg/kg, 60 mg/kg). The treatment solution was prepared with the similar solvent in the similar manner as Test Example 4.
After the boost on Day 21, the state of the arthritis onset in each extremity was scored visually once in 2 or 3 days according to the criteria shown in Table 7. The scores of all four extremities were summed up on each mouse basis, and the mean value of 10 animals in each group was represented as an arthritis score (normal “0” up to maximum “16”).

Data set [4] deals with collagen-induced arthritis. Briefly: Rat collagen-induced arthritis model. The class given is in vivo. The note with it: Lewis rat, 30 and 60 mg/kg orally twice a day. The method, then: Effect in Rat Collagen-Induced Arthritis Model
Incomplete Freund's Adjuvant (Sigma-Aldrich, #F5506) and Bovine Type II Collagen, 4 mg/mL Solution (Sichuan University, Lot.08H0497) were mixed in a 1:1 ratio to form an emulsion. Three groups of Lewis rat (10 animals/group) (5-6 week old, female) received 0.5 mL per animal of the emulsion which was given in small portions on Day 0 and Day 7 by intradermal injection at 3 sites, one site at the base of the tail (0.1 mL), and the rest of two sites (0.2 mL/site) were on the back of the rat near to the base of the tail, thereby accomplishing the immunization. The solvent or the test compound solution was given twice a day orally every day from Day 0 to Day 20 (test compound doses in the respective groups: 0 mg/kg, 30 mg/kg, 60 mg/kg). The treatment solution was prepared with the similar solvent in the similar manner as Test Example 4.
After the boost on Day 7, the state of the arthritis onset in each extremity was scored visually twice in a week according to the criteria shown in Table 8. The scores of all four extremities were summed up on each rat basis, and the mean value of 10 animals in each group was represented as an arthritis score (normal “0” up to maximum “16”).

T1 sequence (Q06187 whole entry): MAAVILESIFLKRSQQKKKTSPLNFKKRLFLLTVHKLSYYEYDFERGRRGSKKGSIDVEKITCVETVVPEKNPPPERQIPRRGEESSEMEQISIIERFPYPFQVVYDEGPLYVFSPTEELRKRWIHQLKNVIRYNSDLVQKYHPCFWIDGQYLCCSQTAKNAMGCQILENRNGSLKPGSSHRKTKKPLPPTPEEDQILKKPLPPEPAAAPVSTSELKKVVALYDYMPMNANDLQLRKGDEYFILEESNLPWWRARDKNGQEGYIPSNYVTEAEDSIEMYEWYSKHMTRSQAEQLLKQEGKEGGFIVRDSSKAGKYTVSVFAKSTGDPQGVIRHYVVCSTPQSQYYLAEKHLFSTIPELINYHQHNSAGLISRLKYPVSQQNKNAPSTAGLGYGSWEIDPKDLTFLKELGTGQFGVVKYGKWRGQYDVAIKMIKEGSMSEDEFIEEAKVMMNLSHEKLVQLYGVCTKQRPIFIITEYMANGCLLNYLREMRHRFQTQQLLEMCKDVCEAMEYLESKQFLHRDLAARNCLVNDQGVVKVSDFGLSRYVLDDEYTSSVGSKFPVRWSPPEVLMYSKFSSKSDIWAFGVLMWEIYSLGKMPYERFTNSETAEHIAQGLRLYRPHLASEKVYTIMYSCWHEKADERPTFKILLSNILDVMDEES

As for `Cn1cc(Nc2nc(N)nc(-c3cccc(-n4ccc5cc(C6CC6)cc(F)c5c4=O)c3CO)n2)cn1` [Example 1, 2-(3-{4-Amino-6-[(1-methyl-1H-pyrazol-4-yl)amino]-1,3,5-triazin-2-yl}-2-(hydroxymethyl)phenyl)-6-cyclopropyl-8-fluoroisoquinolin-1(2H)-one], the inhibition at 0.3 µM at BTK is at least 70%. Moreover, the “Inhibition of change of intracellular calcium ion induced by BCR-stimulation” value in data set [1] is given as “in a concentration-dependent manner from a low concentration; also recorded: inhibits the BCR signal in the Ramos cells in a concentration dependent manner”. In addition, the “Inhibition of leakage of the dye into the auricles (PCA reaction)” value in data set [2] is on record as “inhibited the leakage of the dye in blood into the auricles significantly”. In addition, the “Toxic signs such as weight loss” value in data set [3] (Day 18 to Day 36) and in data set [4] (Day 0 to Day 20) was “able to circumvent any toxic signs such as weight loss” each time. In addition, the “Inhibition of onset of arthritis (arthritis score)” value in data set [3] (Day 18 to Day 36 (FIG. 3)) and in data set [4] (Day 0 to Day 20 (FIG. 4)) was “inhibited the onset of the arthritis in a dose dependent manner” throughout.

Turning to `Cn1cc(Nc2nc(N)nc(-c3cccc(-n4ccc5cc(C6CC6)cc(F)c5c4=O)c3CO)n2)cc1C#N` [Example 2, 4-({4-Amino-6-[3-(6-cyclopropyl-8-fluoro-1-oxoisoquinolin-2(1H)-yl)-2-(hydroxymethyl)phenyl]-1,3,5-triazin-2-yl}amino)-1-methyl-1H-pyrrole-2-carbonitrile], on BTK, the inhibition at 0.3 µM is at least 70%.
